{
  "source": "patent US10167299B2",
  "about": "“1-(3-aminopropyl) substituted cyclic amine compounds, preparation method therefor, and pharmaceutical compositions and uses thereof” (SHANGHAI INSTITUTE OF MATERIA MEDICA, CHINESE ACADEMY OF …, priority 2013, dated 2019)",
  "molecular_target": "CCR5 (Homo sapiens (Human), UniProt P51681)",
  "sequence (P51681 whole entry)": "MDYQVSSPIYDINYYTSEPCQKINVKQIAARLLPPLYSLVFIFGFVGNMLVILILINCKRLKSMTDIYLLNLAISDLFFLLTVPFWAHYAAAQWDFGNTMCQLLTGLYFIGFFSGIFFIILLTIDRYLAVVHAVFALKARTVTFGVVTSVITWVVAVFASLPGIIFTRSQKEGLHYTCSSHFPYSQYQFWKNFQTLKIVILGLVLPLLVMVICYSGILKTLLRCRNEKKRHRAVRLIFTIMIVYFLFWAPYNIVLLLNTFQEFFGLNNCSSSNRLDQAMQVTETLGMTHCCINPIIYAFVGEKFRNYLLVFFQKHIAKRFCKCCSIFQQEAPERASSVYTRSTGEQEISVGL",
  "assay": "Calcium flux inhibition experiment",
  "format": "cell-based",
  "conditions": "for calcium influx inhibition effect in words, versus positive control compounds: conclusion from Table 1",
  "excerpt": "Experiment apparatus: FlexStation II\nExperiment materials: HEK293/CCR5-Gα16 cell line, Fluo-4calcium dye (fluorescent-4 calcium ion dye) and FlexStation instrument.\nExperiment theory: Activation of the receptor can cause the activation of Gα16 protein, thereby activating phospholipase C (PLC) to generate IP3 and DAG by establishing CCR5 and Ga16 co-transfected cell line. IP3 can bind to IP3 receptors on the endoplasmic reticulum and mitochondria in a cell, which can cause the release of intracellular calcium. Thus, determination of changes in intracellular calcium can be used as a method to detect CCR5 activation state. Fluo-4/AM is a fluorescent probe indicator for calcium used to measure calcium ion. As a non-polar lipid-soluble compound, after it enters into cells, AM group is dissociated to release Fluo-4 under the effect of cell lipolysis enzyme. Fluo-4 is a polar molecule and not easy to go through the lipid bilayer membrane, therefore it can stay within the cells for a long time. Ultimately, the level of activated Ga protein can be reflected by measuring the excited fluorescence intensity. If the screened compound can activate CCR5, it can greatly increase the calcium flux reaction; on the contrary, if the screened compound can antagonize CCR5, it can greatly reduce calcium flux reaction.\n1. HEK293 cells which can stably express CCR5 were inoculated in a 96-well plate and incubated overnight.\n2. The medium in each well into which cells were innoculated was removed and 40 μl/well of freshly prepared dye was added. The plate was placed in a 37° C. incubator and incubated for 40 minutes at constant temperature.\n3. The medicament to be determined was diluted with calcium buffer to eight concentration gradients, which is 1×10^−4 M, 1×10^−5 M, 1×10^−6 M, 1×10^−7 M, 1×10^−8 M, 1×10^−9 M, 1×10^−10 M, and 1×10^−11 M, respectively, and homogeneously mixed.\n4. The dye was removed. Freshly prepared calcium buffer was used to wash for one time, 50 μl of calcium buffer was added.\n5. FlexStation II was used for detection. 25 μl of calcium buffer containing the medicament to be determined was added automatically from the 15th second.",
  "key": {"[1]": {"conditions": "HEK293/CCR5-Gα16 cell line, calcium flux, read-out: CCR5 IC50"}},
  "note": "Read-outs that look alike come from different tables or passages of the source.",
  "data": [
    {"smiles": "CC(=O)N1CCc2c(nc(C)n2C2CC3CCC(C2)N3CC[C@H](NC(=O)C2CCC(F)(F)CC2)c2ccsc2)C1", "note": "(stereo partly drawn) [Compound 42, 4,4-difluoro-N-{(1S)-1-(thiophen-3-yl)-3-[(3-endo)-3-(5-acetyl-2-methyl-4,5,6,7-tetrahydro-1H-imidazo[4,5-c]pyridin-1-yl)-8-azabicyclo[3.2.1]octane-8-yl]propyl}cyclohexane-1-carboxamide]", "values": [
      {"measurement": "IC50", "setting": "[1]", "value": 15.9, "unit": "nM"}
    ]},
    {"smiles": "Cc1nc2c(n1C1CC3CCC(C1)N3CC[C@H](NC(=O)C1CCC(F)(F)CC1)c1ccsc1)CCN(C(=O)C(C)C)C2", "note": "(stereo partly drawn) [Compound 43, 4,4-difluoro-N-{(1S)-1-(thiophen-3-yl)-3-[(3-endo)-3-(5-isobutyryl-2-methyl-4,5,6,7-tetrahydro-1H-imidazo[4,5-c]pyridin-1-yl)-8-azabicyclo[3.2.1]octane-8-yl]propyl}cyclohexane-1-carboxamide]", "values": [
      {"measurement": "IC50", "setting": "[1]", "value": 8.34, "unit": "nM"}
    ]},
    {"smiles": "CCc1ccc([C@H](CCN2C3CCC2CC(n2c(C)nnc2C(C)C)C3)NC(=O)C2CCCCC2)s1", "note": "(stereo partly drawn) [Compound 65, N-[(1S)-3-[exo-3-(3-isopropyl-5-methyl-4H-1,2,4-triazol-4-yl)-8-azabicyclo[3.2.1]octane-8-yl]-1-(5-ethylthiophen-2-yl)propyl]cyclohexane-1-carboxamide]", "values": [
      {"measurement": "IC50", "setting": "[1]", "value": 1.62, "unit": "nM"},
      {"measurement": "calcium influx inhibition effect in words, versus positive control compounds", "value": "better than the positive control compounds"}
    ]},
    {"smiles": "CCc1ccc([C@H](CCN2C3CCC2CC(n2c(C)nnc2C(C)C)C3)NC(=O)C2CCCC2)s1", "note": "(stereo partly drawn) [Compound 66]", "values": [
      {"measurement": "IC50", "setting": "[1]", "value": 2.02, "unit": "nM"},
      {"measurement": "calcium influx inhibition effect in words, versus positive control compounds", "value": "better than the positive control compounds"}
    ]},
    {"smiles": "COC(=O)c1ccc([C@H](CCN2C3CCC2CC(n2c(C)nnc2C(C)C)C3)NC(=O)C2CCC(F)(F)CC2)s1", "note": "(stereo partly drawn) [Compound 73, 4,4-difluoro-N-[(1S)-3-[exo-3-(3-isopropyl-5-methyl-4H-1,2,4-triazol-4-yl)-8-azabicyclo[3.2.1]octane-8-yl]-1-(5-methoxycarbonylthiophen-2-yl)propyl]cyclohexane-1-carboxamide]", "values": [
      {"measurement": "IC50", "value": 8.23, "unit": "nM"}
    ]},
    {"smiles": "COC(=O)c1ccc([C@H](CCN2C3CCC2CC(n2c(C)nnc2C(C)C)C3)NC(=O)C2CCC(F)(F)CC2)s1", "note": "(stereo partly drawn) [Compound 88, 4,4-difluoro-N-[(1S)-3-[exo-3-(3-isopropyl-5-methyl-4H-1,2,4-triazol-4-yl)-8-azabicyclo[3.2.1]octane-8-yl]-1-(5-methoxycarbonylthiophen-2-yl)propyl]cyclohexane-1-carboxamide]", "values": [
      {"measurement": "IC50", "setting": "[1]", "value": 9.26, "unit": "nM"}
    ]},
    {"smiles": "Cc1nnc(C(C)C)n1C1CC2CCC(C1)N2CC[C@H](NC(=O)C1CCCCC1)c1ccc(Cl)s1", "note": "(stereo partly drawn) [Compound 113, N-[(1S)-3-[exo-3-(3-isopropyl-5-methyl-4H-1,2,4-triazol-4-yl)-8-azabicyclo[3.2.1]octane-8-yl]-1-(5-chlorothiophen-2-yl)propyl]cyclohexane-1-carboxamide]", "values": [
      {"measurement": "IC50", "setting": "[1]", "value": 8.14, "unit": "nM"}
    ]},
    {"smiles": "Cc1nnc(C(C)C)n1C1CC2CCC(C1)N2CC[C@H](NC(=O)C1CCCC1)c1ccc(Cl)s1", "note": "(stereo partly drawn) [Compound 114, N-[(1S)-3-[exo-3-(3-isopropyl-5-methyl-4H-1,2,4-triazol-4-yl)-8-azabicyclo[3.2.1]octane-8-yl]-1-(5-chlorothiophen-2-yl)propyl]cyclopentane-1-carboxamide]", "values": [
      {"measurement": "IC50", "setting": "[1]", "value": 9.27, "unit": "nM"}
    ]},
    {"smiles": "Cc1nnc(C(C)C)n1C1CC2CCC(C1)N2CC[C@H](NC(=O)C1CCCCC1)c1nccs1", "note": "(stereo partly drawn) [Compound 116, N-[(1S)-3-[exo-3-(3-isopropyl-5-methyl-4H-1,2,4-triazol-4-yl)-8-azabicyclo[3.2.1]octane-8-yl]-1-(thiazol-2-yl)propyl]cyclohexane-1-carboxamide]", "values": [
      {"measurement": "IC50", "setting": "[1]", "value": 15.6, "unit": "nM"}
    ]},
    {"smiles": "Cc1nnc(C(C)C)n1C1CC2CCC(C1)N2CC[C@H](NC(=O)C1CCCC1)c1nccs1", "note": "(stereo partly drawn) [Compound 117, N-[(1S)-3-[exo-3-(3-isopropyl-5-methyl-4H-1,2,4-triazol-4-yl)-8-azabicyclo[3.2.1]octane-8-yl]-1-(thiazol-2-yl)propyl]cyclopentane-1-carboxamide]", "values": [
      {"measurement": "IC50", "setting": "[1]", "value": 16.1, "unit": "nM"}
    ]},
    {"smiles": "CCCC(=O)N1CCc2c(nc(C)n2C2CC3CCC(C2)N3CC[C@H](NC(C)=O)c2nccs2)C1", "note": "(stereo partly drawn) [Compound 123, N-{(1S)-3-[(3-endo)-3-(5-n-butyryl-2-methyl-4,5,6,7-tetrahydro-1H-imidazo[4,5-c]pyridin-1-yl)-8-azabicyclo[3.2.1]octane-8-yl]-1-(thiazol-2-yl)-propyl}acetamide]", "values": [
      {"measurement": "IC50", "setting": "[1]", "value": 12.1, "unit": "nM"},
      {"measurement": "calcium influx inhibition effect in words, versus positive control compounds", "value": "better than the positive control compounds"}
    ]},
    {"smiles": "CCC(=O)N[C@@H](CCN1C2CCC1CC(n1c(C)nc3c1CCN(C(C)=O)C3)C2)c1nccs1", "note": "(stereo partly drawn) [Compound 124, N-{(1S)-3-[(3-endo)-3-(5-acetyl-2-methyl-4,5,6,7-tetrahydro-1H-imidazo[4,5-c]pyridin-1-yl)-8-azabicyclo[3.2.1]octane-8-yl]-1-(thiazol-2-yl)-propyl}propanamide]", "values": [
      {"measurement": "IC50", "setting": "[1]", "value": 11.2, "unit": "nM"},
      {"measurement": "calcium influx inhibition effect in words, versus positive control compounds", "value": "better than the positive control compounds"}
    ]},
    {"smiles": "CC(=O)Nc1ccc([C@H](CCN2C3CCC2CC(n2c(C)nnc2C(C)C)C3)NC(=O)C2CCCCC2)s1", "note": "(stereo partly drawn) [Compound 138, N-[(1S)-3-[exo-3-(3-isopropyl-5-methyl-4H-1,2,4-triazol-4-yl)-8-azabicyclo[3.2.1]octane-8-yl]-1-(5-acetamidothiophen-2-yl)propyl]cyclohexane-1-carboxamide]", "values": [
      {"measurement": "IC50", "setting": "[1]", "value": 9.75, "unit": "nM"},
      {"measurement": "calcium influx inhibition effect in words, versus positive control compounds", "value": "comparable to the positive control compounds"}
    ]},
    {"smiles": "CC(=O)Nc1ccc([C@H](CCN2C3CCC2CC(n2c(C)nnc2C(C)C)C3)NC(=O)C2CCCC2)s1", "note": "(stereo partly drawn) [Compound 139, N-[(1S)-3-[exo-3-(3-isopropyl-5-methyl-4H-1,2,4-triazol-4-yl)-8-azabicyclo[3.2.1]octane-8-yl]-1-(5-acetamidothiophen-2-yl)propyl]cyclopentane-1-carboxamide]", "values": [
      {"measurement": "IC50", "setting": "[1]", "value": 12.3, "unit": "nM"}
    ]},
    {"smiles": "CNC(=O)c1ccc([C@H](CCN2C3CCC2CC(n2c(C)nnc2C(C)C)C3)NC(=O)C2CCCCC2)s1", "note": "(stereo partly drawn) [Compound 141, 5-[(1S)-1-(cyclohexaneformamido)-3-[exo-3-(3-isopropyl-5-methyl-4H-1,2,4-triazol-4-yl)-8-azabicyclo[3.2.1]octane-8-yl]-propyl]-N-methylthiophene-2carboxamide]", "values": [
      {"measurement": "IC50", "setting": "[1]", "value": 8.36, "unit": "nM"},
      {"measurement": "calcium influx inhibition effect in words, versus positive control compounds", "value": "comparable to the positive control compounds"}
    ]},
    {"smiles": "CNC(=O)c1ccc([C@H](CCN2C3CCC2CC(n2c(C)nnc2C(C)C)C3)NC(=O)C2CCCC2)s1", "note": "(stereo partly drawn) [Compound 142, 5-[(1S)-1-(cyclopentaneformamido)-3-[exo-3-(3-isopropyl-5-methyl-4H-1,2,4-triazol-4-yl)-8-azabicyclo[3.2.1]octane-8-yl]-propyl]-N-methylthiophene-2carboxamide]", "values": [
      {"measurement": "IC50", "setting": "[1]", "value": 9.55, "unit": "nM"},
      {"measurement": "calcium influx inhibition effect in words, versus positive control compounds", "value": "comparable to the positive control compounds"}
    ]},
    {"smiles": "CC(=O)N[C@@H](CCN1C2CCC1CC(n1c(C)nc3c1CCN(C(=O)C(C)C)C3)C2)c1ccc(C#N)s1", "note": "(stereo partly drawn) [Compound 143, N-{(1S)-3-[(3-endo)-3-(5-isobutyryl-2-methyl-4,5,6,7-tetrahydro-1H-imidazo[4,5-c]pyridin-1-yl)-8-azabicyclo[3.2.1]octane-8-yl]-1-(5-cyanothiophen-2-yl)-propyl}acetamide]", "values": [
      {"measurement": "IC50", "setting": "[1]", "value": 13.9, "unit": "nM"}
    ]},
    {"smiles": "CC(=O)N[C@@H](CCN1C2CCC1CC(n1c(C)nc3c1CCN(C(C)=O)C3)C2)c1ccc(C#N)s1", "note": "(stereo partly drawn) [Compound 144, N-{(1S)-3-[(3-endo)-3-(5-acetyl-2-methyl-4,5,6,7-tetrahydro-1H-imidazo[4,5-c]pyridin-1-yl)-8-azabicyclo[3.2.1]octane-8-yl]-1-(5-cyanothiophen-2-yl)-propyl}acetamide]", "values": [
      {"measurement": "IC50", "setting": "[1]", "value": 8.53, "unit": "nM"}
    ]},
    {"smiles": "CC(=O)N[C@@H](CCN1C2CCC1CC(n1c(C)nc3c1CCN(C(=O)C(C)C)C3)C2)c1cc(C)cs1", "note": "(stereo partly drawn) [Compound 145, N-{(1S)-3-[(3-endo)-3-(5-isobutyryl-2-methyl-4,5,6,7-tetrahydro-1H-imidazo[4,5-c]pyridin-1-yl)-8-azabicyclo[3.2.1]octane-8-yl]-1-(4-methylthiophen-2-yl)-propyl}acetamide]", "values": [
      {"measurement": "IC50", "setting": "[1]", "value": 13.3, "unit": "nM"}
    ]},
    {"smiles": "Cc1nnc(C(C)C)n1C1CC2CCC(C1)N2CC[C@H](NC(=O)C1CCN(S(C)(=O)=O)CC1)c1cccs1", "note": "(stereo partly drawn) [Compound 146, N-[(1S)-3-[exo-3-(3-isopropyl-5-methyl-4H-1,2,4-triazol-4-yl)-8-azabicyclo[3.2.1]octane-8-yl]-1-(thiophen-2-yl)propyl]-1-methylsulfonylpiperidine-4-carboxamide]", "values": [
      {"measurement": "IC50", "setting": "[1]", "value": 1.75, "unit": "nM"},
      {"measurement": "calcium influx inhibition effect in words, versus positive control compounds", "value": "better than the positive control compounds"}
    ]},
    {"smiles": "Cc1ccc([C@H](CCN2C3CCC2CC(n2c(C)nnc2C(C)C)C3)NC(=O)C2CCN(S(C)(=O)=O)CC2)s1", "note": "(stereo partly drawn) [Compound 147]", "values": [
      {"measurement": "IC50", "setting": "[1]", "value": 2.48, "unit": "nM"},
      {"measurement": "calcium influx inhibition effect in words, versus positive control compounds", "value": "better than the positive control compounds"}
    ]}
  ]
}
